From article PMC4974565, “Rapid construction of metabolite biosensors using domain-insertion profiling” (Nature Communications, 2016)

Biological target: T1, Tre-C04 (TMBP-cpGFP biosensor; T. litoralis D-trehalose/D-maltose-binding protein) (Thermococcus litoralis, UniProt Q7LYW7)
T1 construct: gene malE; residues 46-450 of TMBP fused to five N-terminal residues of mature E. coli MBP, codon-optimised; expressed in E. coli Tuner, Ni-NTA purified
Assay: cpGFP fluorescence dose-response, purified biosensor, four-parameter fit
Conditions: 500 nM protein; PBS; 0-50 μM sugar; Ex 485 / Em 515 nm

T1 sequence (Q7LYW7 374-450): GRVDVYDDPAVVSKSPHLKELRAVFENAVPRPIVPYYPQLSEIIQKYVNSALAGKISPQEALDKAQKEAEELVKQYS
T1 sequence (Q7LYW7 46-373): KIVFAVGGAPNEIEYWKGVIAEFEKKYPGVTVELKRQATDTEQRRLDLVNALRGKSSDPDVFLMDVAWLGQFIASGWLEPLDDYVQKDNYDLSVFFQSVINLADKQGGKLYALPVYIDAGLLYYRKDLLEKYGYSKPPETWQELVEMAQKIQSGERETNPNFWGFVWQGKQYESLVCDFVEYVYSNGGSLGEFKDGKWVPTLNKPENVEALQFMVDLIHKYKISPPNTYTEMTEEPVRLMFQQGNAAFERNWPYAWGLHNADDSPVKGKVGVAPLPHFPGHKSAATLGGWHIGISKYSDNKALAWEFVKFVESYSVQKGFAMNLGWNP

Row | Structure (SMILES) | Kd [µM]
1 | OC[C@H]1O[C@H](O[C@H]2[C@H](O)[C@@H](O)C(O)O[C@@H]2CO)[C@H](O)[C@@H](O)[C@@H]1O (some centres unmarked) [maltose] | 0.081 ± 0.001
2 | OC[C@H]1O[C@H](O[C@H]2O[C@H](CO)[C@@H](O)[C@H](O)[C@H]2O)[C@H](O)[C@@H](O)[C@@H]1O [trehalose] | 0.053 ± 0.001
